Assay results as given in patent publication US20240101546A1, “HETEROARYL-ACETYLENES, PHARMACEUTICAL COMPOSITIONS THEREOF, AND THEIR THERAPEUTIC APPLICATIONS” (Eubulus Biotherapeutics Inc., priority 2020, published 2024).

System: lung cancer cell line NCI-H82
Experiment: Cell proliferation assay, NCI-H82 (CELL-TITER GLO)
Format: cell-based
Settings: Homo sapiens, NCI-H82, 72 h, NCI-H82 cells, 72 h incubation, cell viability by CELL-TITER GLO, top concentration 1 μM; read-out: EC50, Inhibition of NCl-H82 Cell Proliferation
Outline: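 NCI-H82 cells, 1,000 per well in RPMI1640, were treated after overnight plating with a 3-fold dilution series from 1 μM. Viability read by CellTiter-Glo luminescence after 72 h. EC50 derived from the curves.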

**Q.** Which EC50 does the source give for C#Cc1nnc(NC(=O)N[C@@H](CO)c2ccc(-c3cccc4ncsc34)cc2)s1 [Compound A120, (R)-1-(1-(4-(Benzo[d]thiazol-7-yl)phenyl)-2-hydroxyethyl)-3-(5-ethynyl-1,3,4-thiadiazol-2-yl)urea] here?
**A.** ≤ 200 nM

**Q.** How did the EC50 turn out when C#Cc1nc(NC(=O)N[C@@H](CO)c2ccc(-c3cccc4ncsc34)cc2)ns1 [Compound A122, (R)-1-(1-(4-(Benzo[d]thiazol-7-yl)phenyl)-2-hydroxyethyl)-3-(5-ethynyl-1,2,4-thiadiazol-3-yl)urea] was run?
**A.** 200 to 1000 nM

**Q.** For C#Cc1ccnc(NC(=O)N[C@@H](CO)c2ccc(-c3cccc(N4CCCC4)n3)cc2)n1 [Compound A123, (R)-1-(4-Ethynylpyrimidin-2-yl)-3-(2-hydroxy-1-(4-(6-(pyrrolidin-1-yl)pyridin-2-yl)phenyl)ethyl)urea], which EC50 is on record?
**A.** ≤ 200 nM

**Q.** How did the EC50 turn out when C#Cc1cccc(NC(=O)N[C@@H](CO)c2ccc(-c3cccc(N4CCCC4)n3)cc2)n1 [Compound A124, (R)-1-(6-Ethynylpyridin-2-yl)-3-(2-hydroxy-1-(4-(6-(pyrrolidin-1-yl)pyridin-2-yl)phenyl)ethyl)urea] was run?
**A.** 200 to 1000 nM

**Q.** For C#Cc1nccc(NC(=O)N[C@@H](CO)c2ccc(-c3cccc(N4CCCC4)n3)cc2)n1 [Compound A125, (R)-1-(2-Ethynylpyrimidin-4-yl)-3-(2-hydroxy-1-(4-(6-(pyrrolidin-1-yl)pyridin-2-yl)phenyl)ethyl)urea], which EC50 is on record?
**A.** ≤ 200 nM

**Q.** For C#Cc1nc(NC(=O)N[C@@H](CO)c2ccc(N3CC(F)(F)C3)cc2)cs1 [Compound A126, (R)-1-(1-(4-(3,3-Difluoroazetidin-1-yl)phenyl)-2-hydroxyethyl)-3-(2-ethynyl-thiazol-4-yl)urea], which EC50 is on record?
**A.** ≤ 200 nM

**Q.** For C#Cc1nc(NC(=O)N[C@@H](COC(N)=O)c2ccc(N3CC(F)(F)C3)cc2)cs1 [Compound A127, (R)-2-(4-(3,3-Difluoroazetidin-1-yl)phenyl)-2-(3-(2-ethynylthiazol-4-yl)ureido)-ethyl carbamate], which EC50 is on record?
**A.** ≤ 200 nM

**Q.** With C#Cc1nc(NC(=O)N[C@@H](CO)c2ccc(N3CCCC3)cc2)cs1 [Compound A128, (R)-1-(2-Ethynylthiazol-4-yl)-3-(2-hydroxy-1-(4-(pyrrolidin-1-yl)phenyl)ethyl)-urea] as the molecule, how does the EC50 read?
**A.** ≤ 200 nM

**Q.** C#Cc1nc(NC(=O)N[C@@H](CO)c2ccc(N3CCCC3=O)cc2)cs1 [Compound A129, (R)-1-(2-Ethynylthiazol-4-yl)-3-(2-hydroxy-1-(4-(2-oxopyrrolidin-1-yl)phenyl)-ethyl)urea] was tested. Which EC50 did it give?
**A.** ≤ 200 nM

**Q.** C#Cc1nc(NC(=O)N[C@@H](CO)c2ccc(N3CCC(F)(F)C3)cc2)cs1 [Compound A130, (R)-1-(1-(4-(3,3-Difluoropyrrolidin-1-yl)phenyl)-2-hydroxyethyl)-3-(2-ethynyl-thiazol-4-yl)urea] was tested. Which EC50 did it give?
**A.** ≤ 200 nM

**Q.** With C#Cc1nc(NC(=O)N[C@@H](CO)c2ccc(N3CCCCC3=O)cc2)cs1 [Compound A131, (R)-1-(2-Ethynylthiazol-4-yl)-3-(2-hydroxy-1-(4-(2-oxopiperidin-1-yl)phenyl)-ethyl)urea] as the molecule, how does the EC50 read?
**A.** ≤ 200 nM

**Q.** With C#Cc1nc(NC(=O)N[C@@H](CO)c2ccc(-n3ccccc3=O)cc2)cs1 [Compound A132, (R)-1-(2-Ethynylthiazol-4-yl)-3-(2-hydroxy-1-(4-(2-oxopyridin-1(2H)-yl)phenyl)-ethyl)urea] as the molecule, how does the EC50 read?
**A.** ≤ 200 nM

**Q.** With C#Cc1nc(NC(=O)N[C@@H](CO)c2ccc(N3CCOCC3)cc2)cs1 [Compound A133, (R)-1-(2-Ethynylthiazol-4-yl)-3-(2-hydroxy-1-(4-morpholinophenyl)ethyl)urea] as the molecule, how does the EC50 read?
**A.** ≤ 200 nM

**Q.** For C#Cc1nc(NC(=O)N[C@@H](CO)c2ccc(N3CCOCC3=O)cc2)cs1 [Compound A134, (R)-1-(2-Ethynylthiazol-4-yl)-3-(2-hydroxy-1-(4-(3-oxomorpholino)phenyl)-ethyl)urea], which EC50 is on record?
**A.** 200 to 1000 nM

**Q.** Which EC50 does the source give for C#Cc1nc(NC(=O)N[C@@H](CO)c2ccc(N3CCCCC3)cn2)cs1 [Compound A135, (R)-1-(2-Ethynylthiazol-4-yl)-3-(2-hydroxy-1-(5-(piperidin-1-yl)pyridin-2-yl)-ethyl)urea] here?
**A.** ≤ 200 nM

**Q.** With C#Cc1nc(NC(=O)N[C@@H](CO)c2ccc(N3CCCC(F)(F)C3)cn2)cs1 [Compound A136, (R)-1-(1-(5-(3,3-Difluoropiperidin-1-yl)pyridin-2-yl)-2-hydroxyethyl)-3-(2-ethynylthiazol-4-yl)urea] as the molecule, how does the EC50 read?
**A.** ≤ 200 nM

**Q.** C#Cc1nc(NC(=O)N[C@@H](CO)c2ccc(N3CCCCCC3)cc2)cs1 [Compound A137, (R)-1-(1-(4-(Azepan-1-yl)phenyl)-2-hydroxyethyl)-3-(2-ethynylthiazol-4-yl)urea] was tested. Which EC50 did it give?
**A.** ≤ 200 nM

**Q.** For C#Cc1nc(NC(=O)N[C@@H](CO)c2ccc(N3CCCCCC3=O)cc2)cs1 [Compound A138, (R)-1-(2-Ethynylthiazol-4-yl)-3-(2-hydroxy-1-(4-(2-oxoazepan-1-yl)phenyl)-ethyl)urea], which EC50 is on record?
**A.** ≤ 200 nM

**Q.** How did the EC50 turn out when C#Cc1nc(NC(=O)N[C@@H](CO)c2ccc(N3CCCc4c3cnn4C)cc2)cs1 [Compound A139, (R)-1-(2-Ethynylthiazol-4-yl)-3-(2-hydroxy-1-(4-(1-methyl-1,5,6,7-tetrahydro-4H-pyrazolo[4,3-b]pyridin-4-yl)phenyl)ethyl)urea] was run?
**A.** ≤ 200 nM

**Q.** With C#Cc1nc(NC(=O)N[C@@H](CO)c2ccc(N3CCCc4nn(C)cc43)cc2)cs1 [Compound A140, (R)-1-(2-Ethynylthiazol-4-yl)-3-(2-hydroxy-1-(4-(2-methyl-2,5,6,7-tetrahydro-4H-pyrazolo[4,3-b]pyridin-4-yl)phenyl)ethyl)urea] as the molecule, how does the EC50 read?
**A.** ≤ 200 nM

**Q.** Which EC50 does the source give for C#Cc1nc(NC(=O)N[C@@H](CO)c2ccc(C3=C(C#N)CCCC3)cc2)cs1 [Compound A141, (R)-1-(1-(6′-Cyano-2′,3′,4′,5′-tetrahydro-[1,1′-biphenyl]-4-yl)-2-hydroxyethyl)-3-(2-ethynylthiazol-4-yl)urea] here?
**A.** ≤ 200 nM

**Q.** Which EC50 does the source give for C#Cc1nc(NC(=O)N[C@@H](CO)c2ccc(C3=C(C#N)CCCC3)cn2)cs1 [Compound A142, (R)-1-(1-(5-(2-Cyanocyclohex-1-en-1-yl)pyridin-2-yl)-2-hydroxyethyl)-3-(2-ethynylthiazol-4-yl)urea] here?
**A.** ≤ 200 nM

**Q.** C#Cc1nc(NC(=O)N[C@@H](CO)c2ccc(C3CCCCN3C(C)=O)cc2)cs1 (stereo partly drawn) [Compound A143, 1-((1R)-1-(4-(1-Acetylpiperidin-2-yl)phenyl)-2-hydroxyethyl)-3-(2-ethynyl-thiazol-4-yl)urea] was tested. Which EC50 did it give?
**A.** ≤ 200 nM

**Q.** For C#Cc1nc(NC(=O)N[C@H](CO)C(=O)N2CC(c3ccccc3C#N)C2)cs1 [Compound A144, (R)-1-(1-(3-(2-Cyanophenyl)azetidin-1-yl)-3-hydroxy-1-oxopropan-2-yl)-3-(2-ethynylthiazol-4-yl)urea], which EC50 is on record?
**A.** 200 to 1000 nM

**Q.** For C#Cc1nc(NC(=O)N[C@@H](CO)C(=O)N2CC(c3ccccc3C#N)C2)cs1 [Compound A145, (S)-1-(1-(3-(2-Cyanophenyl)azetidin-1-yl)-3-hydroxy-1-oxopropan-2-yl)-3-(2-ethynylthiazol-4-yl)urea], which EC50 is on record?
**A.** 200 to 1000 nM

**Q.** Which EC50 does the source give for C#Cc1nc(NC(=O)N[C@H](CO)C(=O)N2CCC(c3ccccc3C#N)CC2)cs1 [Compound A146, (R)-1-(1-(4-(2-Cyanophenyl)piperidin-1-yl)-3-hydroxy-1-oxopropan-2-yl)-3-(2-ethynylthiazol-4-yl)urea] here?
**A.** 200 to 1000 nM

**Q.** Which EC50 does the source give for C#Cc1nc(NC(=O)N[C@@H](CO)C(=O)N2CCC(c3ccccc3C#N)CC2)cs1 [Compound A147, (S)-1-(1-(4-(2-Cyanophenyl)piperidin-1-yl)-3-hydroxy-1-oxopropan-2-yl)-3-(2-ethynylthiazol-4-yl)urea] here?
**A.** 200 to 1000 nM

**Q.** How did the EC50 turn out when C#Cc1nc(NC(=O)N[C@H](CO)C(=O)N2CCN(c3ccccc3C#N)CC2)cs1 [Compound A148, (R)-1-(1-(4-(2-Cyanophenyl)piperazin-1-yl)-3-hydroxy-1-oxopropan-2-yl)-3-(2-ethynylthiazol-4-yl)urea] was run?
**A.** ≤ 200 nM

**Q.** Which EC50 does the source give for C#Cc1nc(NC(=O)N[C@@H](CO)C(=O)N2CCN(c3ccccc3C#N)CC2)cs1 [Compound A149, (S)-1-(1-(4-(2-Cyanophenyl)piperazin-1-yl)-3-hydroxy-1-oxopropan-2-yl)-3-(2-ethynylthiazol-4-yl)urea] here?
**A.** ≤ 200 nM

**Q.** Which EC50 does the source give for C#Cc1nc(NC(=O)N[C@@H](CO)C2CCN(c3ccccc3C#N)CC2)cs1 [Compound A150, (R)-1-(1-(1-(2-Cyanophenyl)piperidin-4-yl)-2-hydroxyethyl)-3-(2-ethynylthiazol-4-yl)urea] here?
**A.** ≤ 200 nM

**Q.** With C#Cc1nc(NC(=O)N[C@H](CO)C2CCN(c3ccccc3C#N)CC2)cs1 [Compound A151, (S)-1-(1-(1-(2-Cyanophenyl)piperidin-4-yl)-2-hydroxyethyl)-3-(2-ethynylthiazol-4-yl)urea] as the molecule, how does the EC50 read?
**A.** ≤ 200 nM

**Q.** Which EC50 does the source give for C#Cc1nc(NC(=O)N[C@@H](CO)C(=O)N2CCC3(CC2)CC3)cs1 [Compound A152, (S)-1-(2-Ethynylthiazol-4-yl)-3-(3-hydroxy-1-oxo-1-(6-azaspiro[2.5]octan-6-yl)propan-2-yl)urea] here?
**A.** ≤ 200 nM

**Q.** C#Cc1nc(NC(=O)N[C@@H](CO)C(=O)N2CCC3(CCC3)CC2)cs1 [Compound A153, (S)-1-(2-Ethynylthiazol-4-yl)-3-(3-hydroxy-1-oxo-1-(7-azaspiro[3.5]nonan-7-yl)propan-2-yl)urea] was tested. Which EC50 did it give?
**A.** ≤ 200 nM

**Q.** How did the EC50 turn out when C#Cc1nc(NC(=O)N[C@@H](CO)C(=O)N2CCC3(CCCC3)CC2)cs1 [Compound A154, (S)-1-(2-Ethynylthiazol-4-yl)-3-(3-hydroxy-1-oxo-1-(8-azaspiro[4.5]decan-8-yl)propan-2-yl)urea] was run?
**A.** ≤ 200 nM

**Q.** With C#Cc1nc(NC(=O)N[C@H](CO)C(=O)N2CCC3(CCCC3)CC2)cs1 [Compound A155, (R)-1-(2-Ethynylthiazol-4-yl)-3-(3-hydroxy-1-oxo-1-(8-azaspiro[4.5]decan-8-yl)propan-2-yl)urea] as the molecule, how does the EC50 read?
**A.** ≤ 200 nM

**Q.** Which EC50 does the source give for C#Cc1ncc(NC(=O)N[C@@H](CO)C(=O)N2CCC3(CCCC3=O)CC2)s1 [Compound A156, (S)-1-(2-Ethynylthiazol-5-yl)-3-(3-hydroxy-1-oxo-1-(1-oxo-8-azaspiro[4.5]decan-8-yl)propan-2-yl)urea] here?
**A.** ≤ 200 nM
